Data from ChEMBL document CHEMBL3988442, “University of Dundee, Small-Polar-MMV Screening Library” (2021).

Tested on: Plasmodium falciparum
Test: Calibr Malaria Delayed Death Assay SOP
Assay type: functional, organism-based
Settings: for IC50: Plasmodium falciparum

SMILES | pIC50 | IC50 [nM]
Cc1ccc(CNC2CC3(CCN(CCO)CC3)c3ccccc32)s1.O=C(O)C(F)(F)F.O=C(O)C(F)(F)F (configuration not stated) | 6.464 | 322
O=C(Cn1ccc2ccc(Br)cc21)NC[C@@H]1CCCN2CCCC[C@H]12 | 5.89 | 1280
COc1ccc2[nH]c(C[C@@H]3C[C@@H](C(C)C)[C@H](CN(C)C)C=C3C)nc2c1 | 6.245 | 615
COc1cccc([C@H]2CN(C(C)=O)[C@@H]3CCN(Cc4ccsc4)C[C@H]23)c1.Cl | 5.897 | 1070
CCN1CC(c2ccccc2)CC2(CCN(Cc3ncc[nH]3)CC2)C1 (configuration not stated) | 6.147 | 799
NCC(c1ccccc1)N1CCc2sccc2C1 (configuration not stated) | 6.206 | 699
COCC(O)CN(C)c1ccnc2cc(Br)ccc12 (configuration not stated) | 6.091 | 834
COc1cccc(CN2CCCC(Nc3cccc(F)c3)C2)c1O (configuration not stated) | 6.314 | 810
CCC(NCc1ccccc1C)c1ccccc1OCC(=O)NC (configuration not stated) | 6.158 | 731
CCC(NCc1cccc(Cl)c1)c1ccccc1OCC(=O)NC (configuration not stated) | 6.073 | 1370
Cc1cc(C[C@@H]2CCC[C@H]2NCc2c[nH]nc2-c2ccccc2)on1.O=C(O)CC(O)(CC(=O)O)C(=O)O | 5.845 | 1230
CN(C(=O)c1ccon1)[C@@H]1CCC[C@@H](Oc2ccccc2)[C@@H]1O | 5.983 | 1190
CCN1CCCC(CNC(=O)C2(c3cc(C)cc(C)c3)CCC2)C1 (configuration not stated) | 6.008 | 1510
CN1CCN(c2ccccc2NC(=O)NCCc2ccccc2)CC1 | 6.032 | 998
O=C(c1ccccc1)C1CCN(Cc2cc3c(cc2O)CCC3)CC1 | 6.259 | 613
C=Cc1cccc(CN2C[C@@H](CN(C)CC)[C@@H](CO)C2)c1 | 5.976 | 1050
CN(C)CCn1nc(C2CCN(Cc3ccccc3)C2)c2cccnc21 (configuration not stated) | 5.827 | 2240
Cc1cnccc1CN1CC[C@H](Oc2cccc(F)c2)[C@@](C)(O)C1 | 5.772 | 1420
CC(O)CN1CCC(CNCc2cccc(Br)c2)CC1 (configuration not stated) | 6.286 | 528
CN1CCCCC1c1ncc2c(n1)CCN(Cc1ccc(F)cc1)C2 (configuration not stated) | 5.899 | 1280
Cc1cccc(OC(C)C(=O)NCC2(N(C)C)CCCC2)c1 (configuration not stated) | 6.11 | 760
CCC(CN1CCCCC1)NC(=O)C1(c2ccc(F)cc2)CC1.O=C(O)CC(O)(CC(=O)O)C(=O)O (configuration not stated) | 6.19 | 709

SMILES | pIC50 | IC50 [nM]
CN(Cc1ccsc1)c1nc(-c2ccccn2)nc2c1CCNCC2 | 6.41 | 399
CC(C)Oc1ncnc2c1CCN(Cc1ccco1)CC2.O=C(O)C(F)(F)F | 6.106 | 1020
COc1cccc(OC)c1CN1CC(=O)N(c2ccc(C)cc2)CC1C (configuration not stated) | 5.987 | 877
CN(C)[C@@H]1CCN(S(=O)(=O)C2CC2)[C@H]1Cc1ccccc1.O=C(O)C(F)(F)F | 5.682 | 2830
COc1ccccc1CCN1CCCC(CN(C)Cc2ccc(C)o2)C1 (configuration not stated) | 5.915 | 1030
CN1CCN(S(=O)(=O)c2ccc(Cl)c(Cl)c2)c2cnccc21 | 6.238 | 557
Cc1cc(F)ccc1CN1CCC(O)(CN2CCCCC2)C1 (configuration not stated) | 6.047 | 1750
Cc1cc(-n2cccn2)ccc1CN1CCOCC(CN(C)C)C1 (configuration not stated) | 6.139 | 673
CCC(CNC(=O)CNC(C)=O)Oc1cccc(F)c1 (configuration not stated) | 5.937 | 1020
CCOc1ccc(Br)cc1C1CCCCN1.Cl (configuration not stated) | 6.053 | 737
Cc1cc(N2CCC(NC(C)Cc3ccsc3)CC2)nc(C)n1 (configuration not stated) | 6.277 | 508
COc1ccc(C(=O)NCCCOC(C)c2ccccc2)c(OC)c1 (configuration not stated) | 6.022 | 763
CCN1CCC2(CC1)CC(NCc1ccncc1)c1ccccc1O2.O=C(O)C(F)(F)F.O=C(O)C(F)(F)F.O=C(O)C(F)(F)F (configuration not stated) | 6.198 | 579
Clc1ccc(C2(CNC3=NCCN3)CC2)cc1.I | 6.323 | 505
Cl.Fc1cccc(F)c1Cn1c(C2CCCNC2)cc2cccnc21 (configuration not stated) | 6.143 | 1050
CC(NCC1CCN(CCO)CC1)c1ccc(OC(F)(F)F)cc1 (configuration not stated) | 6.465 | 343
Cc1cccc(C2(NCCCS(C)(=O)=O)CCCC2)c1 | 6.254 | 659
NC(=O)CN1CCC(Nc2ccnc3ccc(Cl)cc23)CC1 | 6.054 | 761
Cc1ccsc1CN(Cc1cccnc1)C1CC(C)(C)NC(C)(C)C1.O=C(O)CC(O)(CC(=O)O)C(=O)O | 6.511 | 290
Cc1ccc(OC2(C(=O)N(C)Cc3ccoc3)CCNCC2)cc1 | 6.094 | 701
CC(=O)N(c1ccc(C)cc1)c1nc(CN2CCCC(C)C2)cs1 (configuration not stated) | 5.762 | 1610
CC(C)(NCc1cccc(O)c1)c1ccc2c(c1)OCO2 | 5.935 | 894

SMILES | pIC50 | IC50 [nM]
Cc1cc(F)ccc1-c1ccccc1CC1CNCCNC1=O.Cl (configuration not stated) | 6.113 | 1190
Cc1ccc(C2(CN(C)Cc3sccc3C)CCNCC2)nc1 | 6.117 | 515
CC1(C)CN(C(CNC2=NCCN2)c2ccc(Cl)cc2)CCO1.I (configuration not stated) | 6.344 | 478
Cc1noc(C)c1CNCc1ccccc1N(C)C1CCN(C)CC1 | 6.243 | 489
O=C(c1ccc(F)c(Cl)c1)N1C[C@@H]2CC[C@H](C1)N(Cc1ccccc1)C2 | 5.941 | 758
Fc1ccc(CN2CCC3(CC2)CCN(Cc2nccs2)CC3)cc1.O=C(O)C(F)(F)F.O=C(O)C(F)(F)F | 6.206 | 708
CN1CCC(N(C)C[C@H]2CC[C@@H](Cc3ccc4occc4c3)O2)CC1 | 6.011 | 993
Cc1cccc(C)c1Nc1noc2c1CN(C(=O)c1c[nH]nc1C)CC2 | 6.277 | 691
CN(CCO)Cc1cc(Cl)ccc1OCC(O)CN1CCCCCC1 (configuration not stated) | 6.095 | 765
Cc1ccc2c(c1)CN(C(=O)C1CCCCC1)C(CN(C)C)CO2.Cl (configuration not stated) | 6.082 | 880
Cc1cc(C)n(C2CN(CC(O)c3ccc(C(F)(F)F)cc3)C2)n1 (configuration not stated) | 5.98 | 1030
CC(C)(C)n1cc(C2=CCN(CCc3ccccn3)CC2)cn1 | 6.143 | 1030
c1cc(-c2n[nH]cc2-c2ccnc(N3CCCCCC3)n2)ccn1 | 8.34 | 4.12
CN(C)c1nc2c(c(NCc3cc(O)ncn3)n1)CCCC2 | 6.202 | 643
CC(C)n1ncc2c1NC(=O)CC21C(=O)Nc2c(Cl)ccc(Cl)c21 (configuration not stated) | 5.929 | 1080
CN(C[C@H]1CN2CC[C@H]1C[C@@H]2CNC(=O)c1ccco1)c1ccccc1 | 5.968 | 1130
COCCCN1CCCN(C(C)C(=O)Nc2cccc(I)c2)CC1 (configuration not stated) | 6.54 | 483
Cc1cc(F)ccc1N1CCC(N2C[C@@H](CN(C)C)[C@@H](CO)C2)CC1 | 6.511 | 314
O=C(O)C(F)(F)F.c1ccc(C[C@H]2CN(C3CCOCC3)CC[C@H]2OCC2CC2)cc1 | 6.236 | 757
Cn1ccnc1C(O)(CCNCc1ccc(Cl)o1)C(F)(F)F (configuration not stated) | 5.844 | 1740
CN(Cc1cc(F)cc2cccnc12)CC1CCN(CCO)CC1 | 6.165 | 835
COCCN1CCC2(CC1)CC(NCc1ccc(C)s1)c1ccccc12.O=C(O)C(F)(F)F.O=C(O)C(F)(F)F (configuration not stated) | 6.267 | 561

SMILES | pIC50 | IC50 [nM]
Cc1ccc(CN2CCC3(CC2)CCN(Cc2ccoc2)CC3)cc1.O=C(O)C(F)(F)F.O=C(O)C(F)(F)F | 6.821 | 202
c1cnnc(N2CCCC2CNc2ncnc3sccc23)c1 (configuration not stated) | 5.797 | 1260
COc1cc(C(=O)NCc2ccc3c(c2)CCCN3C)cc(OC)c1Br | 6.846 | 251
COc1cccc(CN(C)Cc2[nH]c3ccccc3c2C)c1O | 6.46 | 310
Cc1ccc(C2(CN3CCN(Cc4cnc(C)n4C)CC3)CC2)cc1.Cl | 6.615 | 255
CN1CC[C@H](N(Cc2ccccc2)CC2CC2)C[C@H](O)C1 | 5.964 | 1570
NC1CCCCN(Cc2ccccc2CS(=O)(=O)c2ccccc2)C1 (configuration not stated) | 6.25 | 568
CC(NCC1CCN(CCO)CC1)c1ccc(F)c(Cl)c1 (configuration not stated) | 6.184 | 758
Cc1ccc(CN2CC[C@H]3[C@H](CC(Cn4cccn4)N3C)C2)s1.O=C(O)C(F)(F)F.O=C(O)C(F)(F)F.O=C(O)C(F)(F)F (some centres not stated) | 6.142 | 814
CN(Cc1ncc[nH]1)c1nc(-c2ccccn2)nc2c1CCNCC2 | 6.511 | 292
CC(C)N(C)Cc1cnc2n1CCN(C(=O)NC1CCCC1)C2.O=C(O)C(F)(F)F | 6.607 | 275
CC(C)n1ccnc1C1CCCN(c2ccnc3ccccc23)C1 (configuration not stated) | 6.118 | 829
Cc1ccc(S(=O)(=O)N2CCC(N3CCCCC3)CC2)cc1C | 5.751 | 2130
Fc1cnc(N2CCCC3(CCN(Cc4ccsc4)C3)C2)nc1.O=C(O)C(F)(F)F.O=C(O)C(F)(F)F (configuration not stated) | 6.217 | 664
CO[C@H]1CN(C(C)C)C[C@@H]1NC(=O)c1cc(-c2ccccc2O)n[nH]1 | 6.125 | 891
COc1ccc(NC(=O)Nc2cnc(N3CCN(C)CC3)nc2)cc1Cl | 6.139 | 843
Fc1cccc(C(NCc2ncc[nH]2)c2ccccn2)c1 (configuration not stated) | 6.434 | 351
I.c1ccc(Sc2ccc3c(c2)OCO3)c(CNC2=NCCN2)c1 | 6.103 | 604
Oc1ccc(Cl)cc1CNCc1ccccc1Cl | 6.1 | 616
CCNc1ccnc(CN2CCCC2C(=O)Nc2nccs2)c1 (configuration not stated) | 6.462 | 367
